SMILES strings stand for the structures. A value given as a limit tells only on which side of the number the result lay.

Series [1] concerns Calu-6. Nature of the series: Antiproliferative activity against human Calu6 cells harboring KRAS Q61K mutant assessed as reduction cell viability after 72 hrs by CellTiter-Glo assay. Format: functional, cell-based. The settings on record: Calu-6, 72 h.
Series [2] in a line: Apparent permeability across basolateral to apical side in human Caco2 cells at pH 7.4 by LC/MS/MS analysis. The settings on record: Caco-2, pH 7.4. For orientation: Caco-2 cells form a polarised layer with tight junctions and transporters.
Series [3] addresses Platelet-derived growth factor receptor alpha (Homo sapiens) (UniProt P16234). Nature of the series: Binding affinity to human PDGFRalpha (330 to 640 residues) expressed in mammalian expression system at 1 uM by kinome scan assay relative to control.
Series [4] is described as follows: AUC (infinity) in rat at 10 mg/kg, po. Format: ADME, organism-based. On the set-up: dose 10 mg/kg, route oral, time infinity. Conditions: in vivo.
Series [5] in a line: Clearance in rat at 3 mg/kg, iv or 10 mg/kg, po. Format: ADME, organism-based. The settings on record: in vivo.
The nature of series [6]: Volume of distribution at steady state in rat at 3 mg/kg, iv or 10 mg/kg, po. Format: ADME, organism-based. Conditions: in vivo, read-out: Vdss.
The nature of series [7]: Volume of distribution at steady state in dog at 0.3 mg/kg, iv or 1 mg/kg, po. Format: ADME, organism-based, Canis lupus familiaris. Conditions: in vivo, read-out: Vdss.
Series [8] is described as follows: Oral bioavailability in dog at 1 mg/kg. Type of series: ADME, organism-based, Canis lupus familiaris. The settings on record: in vivo.
Series [9] can be described thus: Metabolic stability in mouse plasma after 3 hrs. Format: ADME, cell-free. The settings on record: read-out: Stability.
Series [10] is described as follows: Protein binding in human plasma. Format: ADME, cell-free. The settings on record: read-out: PPB (converted).
The subject of series [11] is Mus musculus. Nature of the series: In vivo inhibition of ERK phosphorylation at Thr202/Tyr204 and Thr185/Tyr187 in po dosed mouse xenografted with human Calu6 cells administered as single dose measured after 1 to 24 hrs post dose. Type of series: functional, organism-based.
For series [12], the system named is Mus musculus. Nature of the series: In vivo inhibition of ERK1/2 phosphorylation at Thr202/Tyr204 and Thr185/Tyr187 in mouse xenografted with human Calu6 cells at 200 mg/kg, po administered as single dose measured up to 24 hrs post dose. Type of series: functional. The settings on record: Calu-6, po. Background: A xenograft is tissue or cells of one species grown in another, often human tumour cells in immunodeficient mice.

Series [13] deals with Calu-6. As to the kind of experiment: Antitumor activity against human Calu6 cells xenografted in nude mouse assessed as tumor regression at 200 mg/kg/day, po administered for 15 days starting on day 12 post tumor implantation measured on day 27 relative to control. Format: functional.
Series [14] concerns the target Serine/threonine-protein kinase B-raf (Homo sapiens, UniProt P15056). As to the kind of experiment: Inhibition of full-length BRAF (unknown origin).
Series [15] has as its system Mus musculus. Nature of the series: Toxicity in nude mouse xenografted with human PC3 cells assessed as body weight loss at 200 mg/kg/day, po administered from day 12 until day 25 post tumor implantation measured twice per week of compound dosing. Type of series: organism-based. The settings on record: in vivo.
Series [16] concerns RAF proto-oncogene serine/threonine-protein kinase (Homo sapiens), P04049 [Y340E,Y341E].

Chain of Serine/threonine-protein kinase B-raf (P15056 whole entry): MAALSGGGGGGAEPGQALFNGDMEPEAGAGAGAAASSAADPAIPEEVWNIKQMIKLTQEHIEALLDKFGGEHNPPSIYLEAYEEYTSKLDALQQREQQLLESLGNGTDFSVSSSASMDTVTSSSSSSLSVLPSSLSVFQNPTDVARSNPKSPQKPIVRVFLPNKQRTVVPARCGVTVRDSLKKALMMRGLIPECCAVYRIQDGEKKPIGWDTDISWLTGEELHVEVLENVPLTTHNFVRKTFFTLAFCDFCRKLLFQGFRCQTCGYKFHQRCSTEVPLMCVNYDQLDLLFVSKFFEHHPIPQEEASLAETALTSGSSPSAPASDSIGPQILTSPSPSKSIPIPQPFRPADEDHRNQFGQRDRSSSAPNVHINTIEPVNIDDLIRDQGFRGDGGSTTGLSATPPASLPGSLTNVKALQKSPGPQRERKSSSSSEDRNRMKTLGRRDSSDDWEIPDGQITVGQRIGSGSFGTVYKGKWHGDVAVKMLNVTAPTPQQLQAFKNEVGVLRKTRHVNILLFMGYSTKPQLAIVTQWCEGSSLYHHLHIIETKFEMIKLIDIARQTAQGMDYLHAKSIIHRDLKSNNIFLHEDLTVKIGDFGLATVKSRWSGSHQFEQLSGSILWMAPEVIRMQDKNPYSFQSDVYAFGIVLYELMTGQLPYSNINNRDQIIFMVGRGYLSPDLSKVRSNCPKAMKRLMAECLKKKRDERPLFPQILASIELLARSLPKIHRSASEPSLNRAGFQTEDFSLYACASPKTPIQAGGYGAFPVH
Chain of Platelet-derived growth factor receptor alpha (Homo sapiens) (P16234 whole entry, the tested form may be a part): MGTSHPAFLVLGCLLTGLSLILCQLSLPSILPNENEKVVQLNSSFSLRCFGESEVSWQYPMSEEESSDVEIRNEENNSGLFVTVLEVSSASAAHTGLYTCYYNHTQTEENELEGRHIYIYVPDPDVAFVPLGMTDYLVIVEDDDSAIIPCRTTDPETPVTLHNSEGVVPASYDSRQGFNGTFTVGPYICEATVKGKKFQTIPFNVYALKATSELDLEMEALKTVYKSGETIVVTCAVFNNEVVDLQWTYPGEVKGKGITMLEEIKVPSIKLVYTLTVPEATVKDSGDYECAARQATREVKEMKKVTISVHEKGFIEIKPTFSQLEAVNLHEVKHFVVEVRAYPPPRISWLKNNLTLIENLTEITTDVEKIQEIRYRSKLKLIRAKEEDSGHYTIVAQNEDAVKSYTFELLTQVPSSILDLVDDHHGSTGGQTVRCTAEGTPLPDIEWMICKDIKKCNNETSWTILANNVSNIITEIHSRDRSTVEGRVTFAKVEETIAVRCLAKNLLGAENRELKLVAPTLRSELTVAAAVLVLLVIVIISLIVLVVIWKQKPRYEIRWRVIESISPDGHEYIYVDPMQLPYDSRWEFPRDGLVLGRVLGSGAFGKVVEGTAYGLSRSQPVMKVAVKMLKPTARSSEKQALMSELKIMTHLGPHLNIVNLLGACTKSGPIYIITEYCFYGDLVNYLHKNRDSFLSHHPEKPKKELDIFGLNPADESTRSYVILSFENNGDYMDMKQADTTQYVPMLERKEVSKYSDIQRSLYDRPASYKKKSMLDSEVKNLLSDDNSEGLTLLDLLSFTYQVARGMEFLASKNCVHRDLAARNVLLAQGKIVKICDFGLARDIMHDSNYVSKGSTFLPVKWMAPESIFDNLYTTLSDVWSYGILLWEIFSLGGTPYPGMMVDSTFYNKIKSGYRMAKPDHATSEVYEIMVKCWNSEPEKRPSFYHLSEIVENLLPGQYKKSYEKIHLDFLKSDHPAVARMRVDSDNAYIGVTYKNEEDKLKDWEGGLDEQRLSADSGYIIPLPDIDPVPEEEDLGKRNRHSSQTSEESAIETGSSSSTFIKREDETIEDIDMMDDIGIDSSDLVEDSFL

`Cc1ncc(NC(=O)c2cccc(C(F)(F)F)c2)cc1-c1cnc(OC2CCOCC2)c(N2CCOCC2)c1`: in the series on Calu-6 [1], the EC50 worked out at 950 nM. Further, in [2], the Papp B→A is 13 ×10⁻⁶ cm/s. The Activity is 96% in [3], 92% with Calu-6 [13] and “Non-Toxic” with Mus musculus [15]. Also, the AUC(0-inf) in series [4] is 1.5 µM·h. Besides, in series [5], the clearance stood at 50 mL/min/kg. Moreover, the results for the Vd in series [6] and in [7] were 3.5 L/kg and 3.1 L/kg, respectively. Besides, the bioavailability in series [8] is 48%. Also, in series [9], the remaining at 3 h was 82%. Also, the fraction unbound in series [10] was 0.02. Also, the inhibition result in the series on Mus musculus [11] is “Dose-dependent effect”. The compound further gave an inhibition in vivo at 200 mg/kg in the series with Mus musculus [12] of at least 70%. Also, the IC50 in [14] came to 0.4 nM. For the same compound, the T1/2 in series [16] was over 6.5 h.

In general, EC50 refers to the concentration giving half of the maximal effect. What is called Papp B→A is how fast a substance crosses the layer from the basolateral side. The AUC(0-inf) is total exposure, with the tail of the curve extrapolated. In general, bioavailability refers to the share of a dose that reaches the circulation, judged against a reference dose that is usually intravenous. One may read the inhibition in vivo as the change of the read-out against control, counted positive when it falls. A word on the IC50: it is the concentration that inhibits the measured activity by half. Read a high IC50 as weaker potency.

Source of the values: ChEMBL document CHEMBL4011620, “Design and Discovery of N-(2-Methyl-5'-morpholino-6'-((tetrahydro-2H-pyran-4-yl)oxy)-[3,3'-bipyridin]-5-yl)-3-(trifluoromethyl)benzamide (RAF709): A Potent, Selective, and Efficacious RAF Inhibitor Targeting RAS Mutant Cancers” (J Med Chem, 2017).
